Reference: patent US5840859A, “(Aminostyryl)pyridinium compounds for radiolabelling cell membranes” (Research Corporation Technologies, Inc., priority 1996, dated 1998)

Experiments:
[1] = tested on: inflammatory lesions / abscesses; conditions: cited from earlier work
mixed leukocytes = assay: Mixed leukocyte labeling yield; format: cell-based, canine; conditions: for Mixed leukocyte labeling yield: 125I labeled, average, 10-30 μCi, 250-325 Ci/mmol
Procedure: Labeling of mixed leukocytes (harvested from 20 mL canine blood) with 4a-d was performed using five different procedures: 1) labeling in Diluent C (a commercial non-ionic cell labeling media developed by Zynaxis Co. that is not approved for human use) after two saline washes of the cell pellet; 2) labeling in saline after two saline washes of the cell pellet; 3) labeling in saline with no saline washes of the cell pellet; 4 and 5) labeling in ether 10% or 100% platelet poor plasma (PPP).
Unwashed mixed leukocytes in 1.5 mL 10% PPP in saline were also tested. […]
This was evaporated to dryness under vacuum in a speed vac and reconstituted into 30 ul ethanol. Forty milliliters of canine blood was drawn into a 60 mL syringe containing 6.5 mL acetate-citrate-dextrose solution. To this was added 5.5 mL 2% methyl cellulose in saline. The contents of the syringe were gently mixed by several inversions of the syringe and the syringe placed vertically, needle end up, for 45 minutes to allow the red blood cells to settle. The plasma was drawn off and placed into a 50 mL Falcon tube. The tube was centrifuged at 1100 rpm for 15 minutes to pellet the leukocytes. The plasma was removed and the cells resuspended in 2 mL saline. In a 1 mL plastic microcentrifuge was placed 0.5 mL saline. […] The cells were then underlayered with 7.5 mL of platelet poor plasma and centrifuged at 1600 rpm for seven minutes to pellet the cells. The supernatant was removed, the cells resuspended in 10 mL saline, and transferred to a new tube. The supernatant, cells, and labeling tube were counted for radioactivity. The cells were centrifuged again at 1600 rpm for 7 minutes, the supernatant removed, and the cells resuspended.
A sample of canine blood (20 mL) was drawn into a 60 mL syringe containing 3 mL acetate-citrate-dextrose (ACD) solution. To this was added 3 mL 2% methyl cellulose in saline. The contents of the syringe were gently mixed by several inversions, and the syringe was then placed vertically, needle end up, for 45 min to allow the red blood cells to settle. The plasma was drawn off and transferred to a 50 mL Falcon tube. The tube was centrifuged at 1100 rpm for 15 min to pellet the leukocytes. The plasma was removed and the cells resuspended in 10 mL saline. The tube was centrifuged at 1600 rpm for 7 min, the supernatant removed, and the cells resuspended in 10 mL saline and recentrifuged at 1600 rpm for 7 min. The supernatant was then removed and the cells resuspended in 2 mL Diluent C. Into a 1 mL plastic microcentrifuge tube was placed 0.5 mL Diluent C. […] The indium complex in Diluent C was immediately added to the leukocytes and the cells were placed vertically on a Nutator rocking apparatus and rocked gently for 30 min at room temperature. The cells were then underlayered with 5 mL of platelet poor plasma and centrifuged at 1600 rpm for 7 min to pellet the cells. The supernatant was removed, the cells resuspended in 10 mL saline, and transferred to a new tube. The supernatant, cells, and labeling tube were counted for radioactivity. The cells were centrifuged again at 1600 rpm for 7 min, the supernatant removed, and the cells resuspended.

[2] = tested on: sodium urate induced abscess in the stifle joint; assay: Localization of labeled leukocytes in dogs having a sodium urate induced abscess in the stifle joint (aspirate, gamma camera images)
Text: Mixed leukocytes labeled with 4b and ^111 In-oxine labeled mixed leukocytes were compared in dogs having a sodium urate-induced inflammation in the left stifle joint. […]

mononuclear leukocytes = assay: Mononuclear leukocyte labeling yield; format: cell-based; conditions: harvested from 20 mL canine blood via isolymph method
Procedure: Using ^125 I-4b and ^131 I-4b, mononuclear leukocytes harvested from 20 mL canine blood via the isolymph method (sodium diatrizoste and Ficol 400, d=1.077) were labeled in 77% and 85% yields, respectively. Thus, the present compounds can label both lymphocytes and mixed leukocytes in high yields, and that the latter can be used to image sites of focal inflammation.

[3] = labeled leukocytes, McAfee et al.
[4] = 48 hour, estimated from region of interest (ROI) measurements
[5] = Experiment 3, injected 88 μCi 131I-4b, 331 μCi 111In-oxine, Diluent C
[6] = Experiment 4, injected 255 μCi 131I-4b, 288 μCi 111In-oxine, Diluent C
[7] = Experiment 5, injected 272 μCi 131I-4b, 326 μCi 111In-oxine, saline
[8] = Experiment 6, injected 211 μCi 131I-4b, 378 μCi 111In-oxine, saline
[9] = Table 3 Experiment 3, 4b 500 Ci/mmol, Diluent C after 2 × 10 mL saline washes
[10] = Table 3 Experiment 4, 4b 1000 Ci/mmol, Diluent C after 2 × 10 mL saline washes
[11] = Table 3 Experiment 5, 4b 800 Ci/mmol, saline after 2 × 10 mL saline washes
[12] = Table 3 Experiment 6, 4b 800 Ci/mmol, saline after 2 × 10 mL saline washes

## C/C(=N\[O-])[C@@H](C)[N-]CC(C)(C)C[N-][C@H](C)/C(C)=N/O.[O]=[99Tc+3] (racemic) [^99m Tc-HMPAO]
[1]; in vitro and in vivo
  stability compared with the 111In radiopharmaceuticals: less stable both in vitro and in vivo
[1]; labeled leukocytes, in vivo
  nonspecific biodistribution: diffuse abdominal radioactivity, gall bladder uptake
[1]; [3]
  target to background ratios compared with cells labeled with 111In-oxine: lower target to background ratios
  uptake in abscesses compared with cells labeled with 111In-oxine: lower absolute uptake in abscesses
[1]; printed as early as three hours post injection
  renal excretion of unidentified polar species containing 99mTc, earliest time: three hours post injection

## CCCCCCCCN(CCCCCCCC)c1ccc(/C=C/c2cc[n+](C/C=C/[125I])cc2)cc1 [Compound 4c]
Mixed leukocytes; Diluent C
  Mixed leukocyte labeling yield: 52%
Mixed leukocytes; saline, 2 washes of pellet
  Mixed leukocyte labeling yield: 32%
Mixed leukocytes; saline, no washes of pellet
  Mixed leukocyte labeling yield: 6%
Mixed leukocytes; five labeling procedures compared
  Leukocyte labeling (in words): only labeled leukocytes in useful yields using Diluent C

## [In+3].[O-]c1cccc2cccnc12.[O-]c1cccc2cccnc12.[O-]c1cccc2cccnc12 [^111 In-oxine, reference compound]
[2]; 3 hours
  abscess visibility in gamma camera images: the abscess was visible at 3 hours
[2]; [4]
  percent injected dose per organ, liver: 13.1%
[2]; Experiment 1
  % aspirate radioactivity cell bound: 95%
[2]; Experiment 1, injected 84 μCi 125I-4b, 500 μCi 111In-oxine, Diluent C
  % inj. dose in abscess aspirate: 0.383%
[2]; Experiment 2
  % aspirate radioactivity cell bound: 98%
[2]; Experiment 2, injected 66 μCi 125I-4b, 312 μCi 111In-oxine
  % inj. dose in abscess aspirate: 0.088%
[2]; Experiment 3
  % aspirate radioactivity cell bound: 79%
[2]; Experiment 3, 3 hour
  abscess to contralateral knee ratio: 2.7
  abscess to surrounding tissue ratio: 2.0
[2]; [5]
  % inj. dose in abscess aspirate: 0.019%
[2]; Experiment 4
  % aspirate radioactivity cell bound: 88%
[2]; Experiment 4, 48 hours
  abscess to contralateral knee ratio: 4.0
  abscess to surrounding tissue ratio: 2.6
[2]; [6]
  % inj. dose in abscess aspirate: 0.056%
[2]; Experiment 5
  % aspirate radioactivity cell bound: 92%
[2]; [7]
  % inj. dose in abscess aspirate: 0.021%
[2]; Experiment 6
  131I/111In or 125I/111In in aspirate: 22
  % aspirate radioactivity cell bound: 78%
[2]; [8]
  % inj. dose in abscess aspirate: 0.016%
[2]; between 1 hour and 3 hours
  gamma camera images, comparison of 4b and 111In-oxine: comparable
Mixed leukocytes; Table 3 Experiment 1, 4b 250 Ci/mmol, Diluent C after 2 × 10 mL saline washes
  Labeling Yield: 88%
Mixed leukocytes; Table 3 Experiment 2, 4b footnotes a,c (250 / 1000 Ci/mmol)
  Labeling Yield: 91%
Mixed leukocytes; [9]
  Labeling Yield: 85%
Mixed leukocytes; [10]
  Labeling Yield: 94%
Mixed leukocytes; [11]
  Labeling Yield: 89%
Mixed leukocytes; [12]
  Labeling Yield: 87%
[1]; compared with all agents yet tested
  absolute inflammatory lesion uptake: highest absolute inflammatory lesion uptake of all agents yet tested

## CCCCCCN(CCCCCC)c1ccc(/C=C/c2cc[n+](C/C=C/[131I])cc2)cc1 [^131 I-4b, 3-[4-[2-(N,N-dihexylamino)phenyl]ethyenyl]pyridino-E-1-[^131 I]-iodo-propene]
[2]; [4]
  percent injected dose per organ, abscess: 1.15%
[2]; Experiment 3
  131I/111In or 125I/111In in aspirate: 2.6
  % aspirate radioactivity cell bound: 93%
[2]; Experiment 3, 3 hour
  abscess to contralateral knee ratio: 3.7
  abscess to surrounding tissue ratio: 2.3
[2]; [5]
  % inj. dose in abscess aspirate: 0.050%
[2]; Experiment 4
  131I/111In or 125I/111In in aspirate: 3.5
  % aspirate radioactivity cell bound: 97%
[2]; Experiment 4, 48 hours
  abscess to contralateral knee ratio: 9.1
  abscess to surrounding tissue ratio: 6.3
[2]; [6]
  % inj. dose in abscess aspirate: 0.194%
[2]; Experiment 5
  131I/111In or 125I/111In in aspirate: 4.3
  % aspirate radioactivity cell bound: 95%
[2]; [7]
  % inj. dose in abscess aspirate: 0.092%
[2]; Experiment 6
  131I/111In or 125I/111In in aspirate: 22
  % aspirate radioactivity cell bound: 94%
[2]; [8]
  % inj. dose in abscess aspirate: 0.355%
[2]; dog, in vivo
  lung sequestration of labeled leukocytes: No lung sequestration was observed
[2]; dog, in vivo, 2880 min
  percent injected dose per organ, liver: 8.7%
[2]; sodium urate induced abscess, dog
  localization of labeled leukocytes in induced inflammatory site/abscess, compared with 111In-oxine (111In-labeled) leukocytes: higher degree of localization
Mononuclear leukocytes
  Mononuclear leukocyte labeling yield: 85%
Mixed leukocytes; Example 10, of 372 uCi added, saline, 20 min
  131I bound to the cells: 340 uCi
Mixed leukocytes; Example 10, saline, 372 uCi, 20 min, room temperature, after second centrifugation
  131I bound to the cells (labeling yield): 91%
Mixed leukocytes; [9]
  Labeling Yield: 88%
Mixed leukocytes; [10]
  Labeling Yield: 88%
Mixed leukocytes; [11]
  Labeling Yield: 86%
Mixed leukocytes; [12]
  Labeling Yield: 87%

## indium-111 complex of N-[methyl(2-(Di-4-ASP-propylthiourea)ethyl)carbamide]-trans-1,2-diaminocyclohexane-N,N',N'-triacetic acid [^111 In-19a]
Mixed leukocytes; Diluent C
  Mixed leukocyte labeling yield, 111In complexes: 4%

## indium-111 complex of N-[methyl(2-(Di-6-ASP-acetamido)ethyl)carbamide]-trans-1,2-diaminocyclohexane-N,N',N'-triacetic acid [^111 In-18]
Mixed leukocytes; Diluent C
  Mixed leukocyte labeling yield, 111In complexes: 21%

## indium-111 complex of N-[methyl(2-(Di-10-ASP-propylthiourea)ethyl)carbamide]-trans-1,2-diaminocyclohexane-N,N',N'-triacetic acid [^111 In-19b]
Mixed leukocytes; Diluent C
  Mixed leukocyte labeling yield, 111In complexes: 84%
Mixed leukocytes; Example 15, Diluent C, 44.4 μCi, 30 min, room temperature
  111In bound to the cells (labeling yield): 84%
Mixed leukocytes; Example 15, of 44.4 μCi added
  111In bound to the cells: 37.4 μCi
